According to patent US10194663B2, “Chemical stabilization of iodosulfuron-methyl sodium salt by hydroxystearates” (BAYER CROPSCIENCE AG, priority 2012, dated 2019):

Assay: Storage stability: degradation of IMS in OD formulations, determined by HPLC
Assay type: physicochemical
Conditions: for Degradation of IMS after 1 week at 54° C. / Degradation of IMS after 4 weeks at 40° C. / Degradation of IMS after 8 weeks at 40° C. / Degradation of IMS after 12 weeks at 35° C. / Degradation of IMS after 2 weeks at 54° C. / Degradation of IMS after 8 weeks at 40° C0: Emulsogen EL 400 10%
Description: The sodium salt of iodosulfuron-methyl (iodosulfuron-methyl-sodium, IMS) is finely dispersed by means of a rotor-stator mixer together with a customary emulsifier such as Emulsogen EL 400® (castor oil polyglycol ether from Clariant AG) in the solvents customary for OD formulations (oil dispersion formulations), such as rapeseed oil methyl ester or Solvesso 200 ND® (aromatics mixture from Exxon AG). Further formulation auxiliaries such as the thickener Bentone 38® (sheet silicate from Elementis AG) or the polymers Ligalub PEG 400 MO® (polyethylene glycol monooleate from Peter Greven GmbH), Ligalub 12 GE® (glyceryl dioleate from Peter Greven GmbH) or Ligalub 71 KE® (complex ester from Peter Greven GmbH) can, inter alia, also be added to the system. Furthermore, lithium hydroxystearate (lithium soap of a 12-hydroxystearic acid) was also additionally added for comparison purposes to each mixture.
Tables 1 to 9 show the compositions of the tested OD formulations (% data in % by weight).
The degradation of the IMS is determined here by means of HPLC.
The degradation is expressed here in tables 1 to 9 in—xx %. This means that after the relevant period xx % of the originally present IMS was already degraded.

[1] = Table 1 OD formulation: IMS 0.5%, Lithium hydroxystearate 0%, Bentone 38 1.2%, Rapeseed oil methyl ester 88.3%
[2] = Table 1 OD formulation: IMS 0.5%, Lithium hydroxystearate 1%, Bentone 38 1.2%, Rapeseed oil methyl ester 87.3%
[3] = Table 2 OD formulation: IMS 0.5%, Lithium hydroxystearate 0%, Solvesso 200 ND 89.5%
[4] = Table 2 OD formulation: IMS 0.5%, Lithium hydroxystearate 0.5%, Solvesso 200 ND 89%
[5] = Table 2 OD formulation: IMS 0.5%, Lithium hydroxystearate 1%, Solvesso 200 ND 88.5%
[6] = Table 2 OD formulation: IMS 0.5%, Lithium hydroxystearate 5%, Solvesso 200 ND 84.5%
[7] = Table 3 OD formulation: IMS 2%, Lithium hydroxystearate 0%, Solvesso 200 ND 88%
[8] = Table 3 OD formulation: IMS 2%, Lithium hydroxystearate 1%, Solvesso 200 ND 87%
[9] = Table 4 OD formulation: IMS 0.5%, Lithium hydroxystearate 0%, Ligalub PEG 400 MO 15%, Solvesso 200 ND 74.5%
[10] = Table 4 OD formulation: IMS 0.5%, Lithium hydroxystearate 1%, Ligalub PEG 400 MO 15%, Solvesso 200 ND 73.5%
[11] = Table 5 OD formulation: IMS 0.5%, Lithium hydroxystearate 0%, Ligalub PEG 400 MO 30%, Bentone 38 1.2%, Rapeseed oil methyl ester 58.3%
[12] = Table 5 OD formulation: IMS 0.5%, Lithium hydroxystearate 1%, Ligalub PEG 400 MO 30%, Bentone 38 1.2%, Rapeseed oil methyl ester 57.3%
[13] = Table 6 OD formulation: IMS 2%, Lithium hydroxystearate 0%, Ligalub PEG 400 MO 15%, Solvesso 200 ND 73%
[14] = Table 6 OD formulation: IMS 2%, Lithium hydroxystearate 1%, Ligalub PEG 400 MO 15%, Solvesso 200 ND 72%
[15] = Table 7 OD formulation: IMS 0.5%, Lithium hydroxystearate 0%, Ligalub 12 GE 30%, Bentone 38 1.2%, Rapeseed oil methyl ester 58.3%
[16] = Table 7 OD formulation: IMS 0.5%, Lithium hydroxystearate 1%, Ligalub 12 GE 30%, Bentone 38 1.2%, Rapeseed oil methyl ester 57.3%
[17] = Table 8 OD formulation: IMS 0.5%, Lithium hydroxystearate 0%, Ligalub 71 KE 15%, Solvesso 200 ND 74.5%
[18] = Table 8 OD formulation: IMS 0.5%, Lithium hydroxystearate 1%, Ligalub 71 KE 15%, Solvesso 200 ND 73.5%
[19] = Table 9 OD formulation: IMS 0.5%, Lithium hydroxystearate 0%, Ligalub 71 KE 30%, Bentone 38 1.2%, Rapeseed oil methyl ester 58.3%
[20] = Table 9 OD formulation: IMS 0.5%, Lithium hydroxystearate 1%, Ligalub 71 KE 30%, Bentone 38 1.2%, Rapeseed oil methyl ester 57.3%

## COC(=O)c1ccc(I)cc1S(=O)(=O)[N-]C(=O)Nc1nc(C)nc(OC)n1.[Na+] [IMS, iodosulfuron-methyl sodium salt]
[1]
  Degradation of IMS after 1 week at 54° C.: −78.3%
  Degradation of IMS after 4 weeks at 40° C.: −46.4%
  Degradation of IMS after 8 weeks at 40° C.: −69.7%
  Degradation of IMS after 12 weeks at 35° C.: −57.8%
[2]
  Degradation of IMS after 1 week at 54° C.: −23.9%
  Degradation of IMS after 4 weeks at 40° C.: −5%
  Degradation of IMS after 8 weeks at 40° C.: −8.7%
  Degradation of IMS after 12 weeks at 35° C.: −6.3%
[3]
  Degradation of IMS after 2 weeks at 54° C.: −87.9%
  Degradation of IMS after 4 weeks at 40° C.: −29.9%
[4]
  Degradation of IMS after 2 weeks at 54° C.: −32.2%
  Degradation of IMS after 4 weeks at 40° C.: −7.4%
[5]
  Degradation of IMS after 2 weeks at 54° C.: −28%
  Degradation of IMS after 4 weeks at 40° C.: −3.4%
[6]
  Degradation of IMS after 2 weeks at 54° C.: −14.7%
  Degradation of IMS after 4 weeks at 40° C.: −3.6%
[7]
  Degradation of IMS after 2 weeks at 54° C.: −34.6%
  Degradation of IMS after 4 weeks at 40° C.: −5.2%
[8]
  Degradation of IMS after 2 weeks at 54° C.: −13.1%
  Degradation of IMS after 4 weeks at 40° C.: −0.2%
[9]
  Degradation of IMS after 2 weeks at 54° C.: −93.2%
  Degradation of IMS after 4 weeks at 40° C.: −34.9%
[10]
  Degradation of IMS after 2 weeks at 54° C.: −37.8%
  Degradation of IMS after 4 weeks at 40° C.: −7.2%
[11]
  Degradation of IMS after 2 weeks at 54° C.: −87.4%
  Degradation of IMS after 4 weeks at 40° C.: −51.6%
  Degradation of IMS after 8 weeks at 40° C0: −77.2%
  Degradation of IMS after 12 weeks at 35° C.: −66.8%
[12]
  Degradation of IMS after 2 weeks at 54° C.: −45.8%
  Degradation of IMS after 4 weeks at 40° C.: −14.8%
  Degradation of IMS after 8 weeks at 40° C0: −21%
  Degradation of IMS after 12 weeks at 35° C.: −13.6%
[13]
  Degradation of IMS after 2 weeks at 54° C.: −81.8%
  Degradation of IMS after 4 weeks at 40° C.: −32.9%
[14]
  Degradation of IMS after 2 weeks at 54° C.: −32.7%
  Degradation of IMS after 4 weeks at 40° C.: −3.2%
[15]
  Degradation of IMS after 1 week at 54° C.: −42.4%
  Degradation of IMS after 4 weeks at 40° C.: −76.6%
  Degradation of IMS after 8 weeks at 40° C.: −65.9%
  Degradation of IMS after 12 weeks at 35° C.: −55.7%
[16]
  Degradation of IMS after 1 week at 54° C.: −11.8%
  Degradation of IMS after 4 weeks at 40° C.: −3.6%
  Degradation of IMS after 8 weeks at 40° C.: −4.7%
  Degradation of IMS after 12 weeks at 35° C.: −5.3%
[17]
  Degradation of IMS after 2 weeks at 54° C.: −66.6%
  Degradation of IMS after 4 weeks at 40° C.: −65%
[18]
  Degradation of IMS after 2 weeks at 54° C.: −9.86%
  Degradation of IMS after 4 weeks at 40° C.: −5.6%
[19]
  Degradation of IMS after 1 week at 54° C.: −75.8%
  Degradation of IMS after 4 weeks at 40° C.: −39.6%
  Degradation of IMS after 8 weeks at 40° C.: −63.6%
  Degradation of IMS after 12 weeks at 35° C.: −54.6%
[20]
  Degradation of IMS after 1 week at 54° C.: −11.4%
  Degradation of IMS after 4 weeks at 40° C.: −2.3%
  Degradation of IMS after 8 weeks at 40° C.: −3%
  Degradation of IMS after 12 weeks at 35° C.: −3%

## CCCCCCC(O)CCCCCCCCCCC(=O)[O-].[Li+] (stereo not drawn) [lithium hydroxystearate]
Hydroxystearate as thickener in oil-based liquid formulations of iodosulfuron-methyl sodium salt
  stabilizing effect on the sodium salt of iodosulfuron: particularly significantly stabilizing effect
